Data published in patent publication US8686044B2, “Amide derivative, pest control agent containing the amide derivative, and use of the amide derivative” (Mitsui Chemicals Agro, Inc., priority 2008, dated 2014).

Experiments:
Assay type in all cases: in vivo
Spodoptera litura = test: Pesticidal test against Spodoptera litura (cabbage leaf dip); conditions: foliar, 144 h, 2-stage larvae, examined after 6 days, 25° C., read-out: pesticidal rate; for pest or weed control at 1 ppm: concentration 1 ppm
In short: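 Cabbage leaf pieces dipped 30 seconds in compound solution at a predetermined concentration and air-dried, then offered to second-stage larvae, five per group in two replicates. Held at 25° C. Living and dead larvae counted after 6 days.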

Plutella xylostella = test: Pesticidal test against Plutella xylostella (cabbage leaf dip); conditions: foliar, 144 h, 2-stage larvae, examined after 6 days, 25° C., read-out: pesticidal rate; for pest or weed control at 1 ppm: concentration 1 ppm
In short: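 Cabbage leaf pieces dipped 30 s in test solution at a predetermined concentration, air-dried, then offered to 2nd-instar larvae, five per group in duplicate. Held at 25° C; living and dead larvae counted after 6 days.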

Choristoneura magnanima = test: Pesticidal test against Choristoneura magnanima (artificial feed dip); conditions: 144 h, 2-stage larvae, examined after 6 days, 25° C., read-out: pesticidal rate; for pest or weed control at 1 ppm: concentration 1 ppm; for pest or weed control at 10 ppm: concentration 10 ppm
Experimental: (§1) Pesticidal Test against Choristoneura magnanima A thinly sliced artificial feed was immersed for 30 seconds in a chemical solution in which a test compound had been prepared at a predetermined concentration, and air-dried, and then put into a 7 cm polyethylene cup having a filter paper laid on the bottom thereof, and 2-stage larvae of Choristoneura magnanima were released. They were left to stand in a thermostatic chamber at 25° C., and the numbers of the living pests and the dead pests were examined after 6 days. The test was carried out with five larvae per group in two replicates. Further, the above compound (A) was used as a comparative compound.

Helicoverpa armigera = test: Pesticidal test against Helicoverpa armigera (cabbage leaf disk dip); conditions: foliar, 72 h, 2-stage larvae, examined after 3 days, 25° C., read-out: pesticidal rate; for pest or weed control at 1 ppm: concentration 1 ppm
Experimental: as §1, with “Helicoverpa armigera” for “Choristoneura magnanima”, “cabbage leaf disk” for “thinly sliced artificial feed”, “air-dried. The leaf disk was” for “air-dried, and then”, “6-hole plastic” for “7 cm polyethylene”, “released with one insect being released per hole.” for “released.”, “3” for “6”

Laodelphax striatellus = test: Pesticidal test against Laodelphax striatellus (rice seedling spray); conditions: 144 h, concentration 100 ppm, 3-stage larvae, examined after 6 days, 25° C., read-out: pesticidal rate
In short: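 Rice seedlings sprayed with 2.5 ml acetone solution of compound at a predetermined concentration, air-dried, then infested with third-stage Laodelphax striatellus larvae in capped water-containing tubes at 25 °C. Living and dead insects counted after 6 days; ten larvae per group, two replicates.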

Musca domestica = test: Pesticidal test against Musca domestica (petri dish dry film); conditions: 24 h, concentration 100 ppm, female adults, examined after 1 day, 25° C., read-out: pesticidal rate
Experimental: Pesticidal Test against Musca domestica
1 ml of an acetone solution in which a test compound had been prepared at a predetermined concentration was added dropwise to a petri dish having a diameter of 9 cm, and air-dried, and then the female adults of Musca domestica were released and the petri dish was capped. They were left to stand in a thermostatic chamber at 25° C., and the numbers of the living pests and the dead pests were examined after 1 day. The test was carried out with five larvae per group in two replicates.

Adoxophyes honmai = test: Pesticidal test against Adoxophyes honmai (artificial feed dip); conditions: 144 h, 2-stage larvae, examined after 6 days, 25° C., read-out: pesticidal rate; for pest or weed control at 10 ppm: concentration 10 ppm; for pest or weed control at 1 ppm: concentration 1 ppm
Experimental: as §1, with “Adoxophyes honmai” for “Choristoneura magnanima”

Compound	pest or weed control at 1 ppm (Spodoptera litura) [%]	pest or weed control at 1 ppm (Plutella xylostella) [%]	pest or weed control at 1 ppm (Choristoneura magnanima) [%]	pest or weed control at 1 ppm (Helicoverpa armigera) [%]	pest or weed control at 100 ppm (Laodelphax striatellus) [%]	pest or weed control at 100 ppm (Musca domestica) [%]	pest or weed control at 10 ppm (Adoxophyes honmai) [%]	pest or weed control at 10 ppm (Choristoneura magnanima) [%]	pest or weed control at 10 ppm (Spodoptera litura; concentration 10 ppm) [%]	pest or weed control at 10 ppm (Plutella xylostella; concentration 10 ppm) [%]	pest or weed control at 10 ppm (Helicoverpa armigera; concentration 10 ppm) [%]	pest or weed control at 1 ppm (Adoxophyes honmai) [%]
N#Cc1ccc(C(=O)Nc2cccc(C(=O)Nc3c(I)cc(C(F)(C(F)(F)F)C(F)(F)C(F)(F)F)cc3C(F)(F)F)c2F)cc1 (stereo not drawn) [6-1829]	≥ 70	≥ 70	≥ 70	≥ 70	≥ 70	≥ 70	–	–	–	–	–	–
CN(C(=O)c1cccc(F)c1)c1cccc(C(=O)Nc2c(I)cc(C(F)(C(F)(F)F)C(F)(F)C(F)(F)F)cc2C(F)(F)F)c1 (stereo not drawn) [7-504]	≥ 70	≥ 70	≥ 70	–	–	≥ 70	–	–	–	–	–	–
CN(C(=O)c1ccc(C#N)cc1)c1cccc(C(=O)Nc2c(I)cc(C(F)(C(F)(F)F)C(F)(F)C(F)(F)F)cc2C(F)(F)F)c1 (stereo not drawn) [7-523]	≥ 70	≥ 70	≥ 70	≥ 70	–	–	≥ 70	–	–	–	–	–
CN(C(=O)c1ccc(C#N)cc1F)c1cccc(C(=O)Nc2c(Br)cc(C(F)(C(F)(F)F)C(F)(F)F)cc2C(F)(F)F)c1F [7-1606]	≥ 70	≥ 70	–	≥ 70	≥ 70	–	–	≥ 70	–	–	–	–
COc1cc(C(F)(C(F)(F)F)C(F)(F)F)cc(C)c1NC(=O)c1cccc(N(C)C(=O)c2ccccc2)c1 [compound (A), reference compound]	–	–	–	–	–	–	≤ 50	≤ 50	≤ 50	≤ 50	≤ 50	–
CN(C(=O)c1cccc(C#N)c1)c1cccc(C(=O)Nc2c(Br)cc(C(F)(C(F)(F)F)C(F)(F)F)cc2Br)c1F [7-1124]	≥ 70	≥ 70	≥ 70	–	≥ 70	–	≥ 70	–	–	–	–	–
O=C(Nc1cccc(C(=O)Nc2c(I)cc(C(F)(C(F)(F)F)C(F)(F)C(F)(F)F)cc2C(F)(F)F)c1)c1ccc(F)cc1 (stereo not drawn) [6-505]	≥ 70	≥ 70	–	≥ 70	–	≥ 70	–	–	–	–	–	≥ 70
CN(C(=O)c1ccc(C#N)cc1)c1cccc(C(=O)Nc2c(I)cc(C(F)(C(F)(F)F)C(F)(F)C(F)(F)F)cc2C(F)(F)F)c1F (stereo not drawn) [7-1829]	≥ 70	≥ 70	≥ 70	≥ 70	≥ 70	≥ 70	–	–	–	–	–	–
O=C(Nc1cccc(C(=O)Nc2c(Br)cc(C(F)(C(F)(F)F)C(F)(F)C(F)(F)F)cc2C(F)(F)F)c1)c1cccc(F)c1 (stereo not drawn) [6-348]	≥ 70	≥ 70	–	≥ 70	–	≥ 70	–	–	–	–	–	≥ 70
CN(C(=O)c1cccc(C#N)c1)c1cccc(C(=O)Nc2c(I)cc(C(F)(C(F)(F)F)C(F)(F)C(F)(F)F)cc2C(F)(F)F)c1 (stereo not drawn) [7-522]	≥ 70	≥ 70	–	≥ 70	–	≥ 70	–	–	–	–	–	≥ 70
N#Cc1cccc(C(=O)Nc2cccc(C(=O)Nc3c(I)cc(C(F)(C(F)(F)F)C(F)(F)C(F)(F)F)cc3C(F)(F)F)c2)c1 (stereo not drawn) [6-522]	≥ 70	≥ 70	–	≥ 70	–	≥ 70	–	–	–	–	–	≥ 70
O=C(Nc1c(I)cc(C(F)(C(F)(F)F)C(F)(F)C(F)(F)F)cc1C(F)(F)F)c1cccc(NC(=O)c2c(F)cccc2F)c1 (stereo not drawn) [6-524]	≥ 70	≥ 70	–	≥ 70	–	≥ 70	–	–	–	–	–	≥ 70
O=C(Nc1cccc(C(=O)Nc2c(I)cc(C(F)(C(F)(F)F)C(F)(F)C(F)(F)F)cc2I)c1F)c1ccc(F)cc1 (stereo not drawn) [6-1341]	≥ 70	≥ 70	–	≥ 70	≥ 70	≥ 70	–	–	–	–	–	≥ 70
O=C(Nc1cccc(C(=O)Nc2c(I)cc(C(F)(C(F)(F)F)C(F)(F)C(F)(F)F)cc2C(F)(F)F)c1)c1cccc(F)c1 (stereo not drawn) [6-504]	≥ 70	≥ 70	–	≥ 70	–	≥ 70	–	–	–	–	–	≥ 70
O=C(Nc1cccc(C(=O)Nc2c(Br)cc(C(F)(C(F)(F)F)C(F)(F)C(F)(F)F)cc2Br)c1F)c1ccccc1 (stereo not drawn) [6-1182]	≥ 70	≥ 70	≥ 70	–	≥ 70	–	–	–	–	–	–	≥ 70
CN(C(=O)c1ccccc1)c1cccc(C(=O)Nc2c(I)cc(C(F)(C(F)(F)F)C(F)(F)F)cc2I)c1F [7-1260]	≥ 70	≥ 70	≥ 70	–	≥ 70	–	≥ 70	–	–	–	–	–
N#Cc1ccc(C(=O)Nc2cccc(C(=O)Nc3c(Br)cc(C(F)(C(F)(F)F)C(F)(F)C(F)(F)F)cc3C(F)(F)F)c2F)cc1 (stereo not drawn) [6-1673]	≥ 70	≥ 70	≥ 70	≥ 70	≥ 70	≥ 70	–	–	–	–	–	–
O=C(Nc1cccc(C(=O)Nc2c(Br)cc(C(F)(C(F)(F)F)C(F)(F)C(F)(F)F)cc2C(F)(F)F)c1)c1ccc(F)cc1 (stereo not drawn) [6-349]	≥ 70	≥ 70	≥ 70	≥ 70	–	–	–	–	–	–	–	≥ 70
CN(C(=O)c1ccc(C#N)cc1)c1cccc(C(=O)Nc2c(I)cc(C(F)(C(F)(F)F)C(F)(F)F)cc2I)c1F [7-1281]	≥ 70	≥ 70	≥ 70	–	≥ 70	–	–	–	–	–	–	–
CN(C(=O)c1ccccc1)c1cccc(C(=O)Nc2c(I)cc(C(F)(C(F)(F)F)C(F)(F)C(F)(F)F)cc2I)c1F (stereo not drawn) [7-1338]	≥ 70	≥ 70	–	≥ 70	≥ 70	≥ 70	–	–	–	–	–	≥ 70
CN(C(=O)c1cccnc1Cl)c1cccc(C(=O)Nc2c(I)cc(C(F)(C(F)(F)F)C(F)(F)C(F)(F)F)cc2I)c1 (stereo not drawn) [7-90]	≥ 70	≥ 70	≥ 70	≥ 70	≥ 70	≥ 70	–	–	–	–	–	–
N#Cc1ccc(C(=O)Nc2cccc(C(=O)Nc3c(I)cc(C(F)(C(F)(F)F)C(F)(F)C(F)(F)F)cc3C(F)(F)F)c2)cc1 (stereo not drawn) [6-523]	≥ 70	≥ 70	–	≥ 70	–	≥ 70	≥ 70	–	–	–	–	–
CN(C(=O)c1ccc(C#N)cc1)c1cccc(C(=O)Nc2c(I)cc(C(F)(C(F)(F)F)C(F)(F)C(F)(F)F)cc2I)c1F (stereo not drawn) [7-1359]	≥ 70	≥ 70	≥ 70	≥ 70	≥ 70	≥ 70	–	–	–	–	–	–
